Patent US12351565B2, “Aromatic compound and preparation method therefor and use thereof” (SHANGHAI JIANHE PHARMACEUTICAL & TECHNOLOGY CO. LTD., priority 2018, dated 2025)
Where a name gives a salt, the structure may show the parent alone. Read-outs that look alike come from different tables or passages of the source.

Columns and labels:
[1] = test system: C57 mice; test: Forced swimming experiment, intraperitoneal administration to mice; assay type: in vivo; settings: for inhibition in vivo at 10 mg/kg: Mus musculus, ip
Method: The forced-swimming test is currently the most widely used classic method to evaluate the antidepressant effects of compounds in rodents. […] The time in immobile state of experimental animal is observed and recorded, which can be used to evaluate the effect of antidepressant compounds.
1 h and 24 h after a single intraperitoneal administration of 10 mg/kg, forced swimming tests were respectively carried out to investigate the effects of different compounds on depression-like behaviors of C57 mice.
(§1) Experimental animals were 6-week aged C57 mice, male, and C57 mice were purchased from Shanghai SLAC Laboratory Animal Co., Ltd., with a body weight of 20.45±0.19 g. Before the experiment, they arrived at the Animal Feeding Center of Shanghai Institute of Materia Medica, Chinese Academy of Sciences (Animal Production License: SCXK9[Shanghai]2004-0002, usage license: SYXK[Shanghai]2003-0029), and adapted for 3 days or more in animal facilities. They were bred at 6 animals/cage. The breeding environment was room temperature 23±0.2° C., with 12/12 hours alternation of day and night. Before the behavioral test, the animals should be moved to the behavioral test operation room 2 hours in advance to adapt to the environment and reduce their tension.
Preparation of the test product: each test compound was accurately weighed and dissolved in 0.9% NaCl solution, mixed thoroughly, and prepared as a 1 mg/ml solution, set aside.
(§2) 24 hours before the administration, the mice were placed in a cylindrical tank to adapt to the aquatic environment for 10 min. On the day of the behavioral test, the animals were respectively administered intraperitoneally once at 1 h and 24 h before the behavioral test. The mice were placed individually into a cylindrical glass tank with a height of 30 cm and a diameter of 20 cm. The water depth in the tank was 15 cm, so that the animals could not escape from the glass tank and their feet and tails could not touch the bottom of the tank, the water temperature was 23° C.-25° C. A 6 minute video was taken after the mouse entered into water. Since most animals were very active in the first two minutes, the immobility time in the following 4 minute were calculated (criterion of immobility: the mouse stops struggling in the water, stays still and has small limbs movement to maintain balance or to keep a floating state).
(§3) The antidepressant effect of a compound was evaluated by the ability of the compound to reduce the immobility time of the animal in the forced swimming test as compared with the blank group. The shorter the immobility time of the animal to be tested, the higher the inhibition rate and the stronger the antidepressant activity. Inhibition rate1 h(%)=immobility time(blank, 1 h)−immobility time(administration, 1 h)/immobility time(blank, 1 h)×100% Inhibition rate24 h(%)=immobility time(blank, 24 h)−immobility time(administration, 24 h)/immobility time(blank, 24 h)×100%

[2] = test system: C57 mice; test: Forced swimming experiment, oral administration to mice; assay type: in vivo; settings: for 1 h inhibition rate / 24 h inhibition rate: inhibition of immobility time, C57 mice; for 1 h inhibition rate: forced swimming 1 h after single oral (intragastric) 20 mg/kg; for 24 h inhibition rate: forced swimming 24 h after single oral (intragastric) 20 mg/kg
Method: 1 h and 24 h after a single oral administration of 20 mg/kg, forced swimming experiments were then carried out to investigate the effects of different compounds on depression-like behavior in C57 mice.
as §1, with “male,” for “male, and”
Preparation of the test product: each test compound was accurately weighed and dissolved in 0.9% NaCl solution, mixed thoroughly, and prepared into 1 mg/ml and 2 mg/ml solutions respectively, and set aside.
as §2, with “intragastrically” for “intraperitoneally”
as §3, with “group.” for “group. The shorter the immobility time of the animal to be tested, the higher the inhibition rate and the stronger the antidepressant activity.”, “rate24h(%)=immobility” for “rate24 h(%)=immobility”

[3] = 1 h, read-out: 1 h inhibition rate
[4] = 24 h, read-out: 24 h inhibition rate

Row | Compound | inhibition in vivo at 10 mg/kg [1, 3] | inhibition in vivo at 10 mg/kg [1, 4] | 1 h inhibition rate [2] | 24 h inhibition rate [2] | also measured
1 | Cl.NC1(c2cc(F)ccc2F)CCCC(O)C1=O (stereo not shown) [Comparative compound 1, reference compound] | 17.4% | 10.6% |  |  | 1 h inhibition rate ([1]; inhibition of immobility time, forced swimming 1 h after single intraperitoneal 10 mg/kg, C57 mice): 17.4 ± 0.2%; 24 h inhibition rate ([1]; inhibition of immobility time, forced swimming 24 h after single intraperitoneal 10 mg/kg, C57 mice): 10.6 ± 1.2%
2 | CNC1(c2cccc(OC(F)(F)F)c2)CCCC(O)C1=O (stereo not shown) [Compound 39, 6-hydroxy-2-methylamino-2-(3-trifluoromethoxyphenyl)cyclohexane-1-one hydrochloride] | 46.6 ± 1% | 49.1 ± 3.7% |  |  | 
3 | N#Cc1cccc(C2(N)CCCC(O)C2=O)c1 (stereo not shown) [Compound 53, 3-(1-amino-3-hydroxy-2-oxocyclohexane)benzonitrile trifluoroacetate] | 50.9 ± 2% | 39.6 ± 3.2% |  |  | 
4 | Cl.NC1(c2cccc(OC(F)(F)F)c2F)CCCC(O)C1=O (stereo not shown) [Compound 59, 2-amino-2-(2-fluoro-3-(trifluoromethoxy)phenyl)-6-hydroxycyclohexane-1-one hydrochloride] | 32 ± 2.2% | 40.3 ± 4.9% | 28.6 ± 1.8% | 36.1 ± 1.6% | 
5 | Cl.N[C@]1(c2cccc(OC(F)(F)F)c2F)CCC[C@H](O)C1=O [Compound 65, (2S,6S)-2-amino-2-(2-fluoro-3-(trifluoromethoxy)phenyl)-6-hydroxycyclohexane-1-one hydrochloride] |  |  | 23.8 ± 0.6% | 32.0 ± 2.9% | 
6 | NC1(c2c(F)ccc(F)c2F)CCCC(O)C1=O (stereo not shown) [Compound 71, 2-amino-6-hydroxy-2-(2,3,6-trifluorophenyl)cyclohexane-1-one hydrochloride] | 24.2 ± 4.7% | 57.4 ± 4.4% |  |  | 
7 | CNCCC(Oc1ccc(C(F)(F)F)cc1)c1ccccc1 (stereo not shown) [Fluoxetine, fluoxetine, reference compound] |  |  | 2.2 ± 1.2% | 1.8 ± 1.3% | antidepressant effect in the forced swimming experiment ([2]; 1 hour and 24 hours, oral administration, in words): no antidepressant effect was shown; antidepressant effect in the forced swimming experiment ([1]; 1 hour and 24 hours, intraperitoneal 10 mg/kg, in words): no obvious antidepressant effect; inhibition in vivo at 10 mg/kg ([1]; inhibition of immobility time, forced swimming 1 h after single intraperitoneal 10 mg/kg, C57 mice, read-out: 1 h inhibition rate): -4.6 ± 2.3%; inhibition in vivo at 10 mg/kg ([1]; inhibition of immobility time, forced swimming 24 h after single intraperitoneal 10 mg/kg, C57 mice, read-out: 24 h inhibition rate): 4.6 ± 1.8%
